This note sets out measurements from ChEMBL document CHEMBL4184314, “Synthesis of new 4-aryloxy-N-arylanilines and their inhibitory activities against succinate-cytochrome c reductase” (Bioorg Med Chem Lett, 2018).

Experiment [1] in a line: Inhibition of porcine succinate-cytochrome c reductase using succinate and cytochrome c as substrate by spectrophotometric analysis. Further details: species or system Sus scrofa.
For experiment [2], the species on record is Sus scrofa. Put plainly: Inhibition of porcine succinate-cytochrome c reductase complex 3 at 10 uM using decylubiquinol and cytochrome c as substrate by spectrophotometric analysis relative to control.
For experiment [3], the species on record is Sus scrofa. Description: Inhibition of porcine succinate-cytochrome c reductase at 10 uM using succinate and cytochrome c as substrate by spectrophotometric analysis relative to control.
For experiment [4], the species on record is Sus scrofa. Put plainly: Inhibition of porcine succinate-cytochrome c reductase complex 2 at 10 uM using succinate and dichlorophenolindophenol as substrate by spectrophotometric analysis relative to control.

pIC50: −log10 of the molar value.

Broadly, the pIC50 is the IC50 on a negative log10 scale, so that one unit is a factor of ten. Lower therefore signals a high IC50. `Brc1ccccc1Oc1ccc(Nc2ccccc2)cc1`: in experiment [1], the pIC50 is less than 5.00. Still for that read-out and setting: the value for `Clc1ccc(Oc2c(Cl)cc(Nc3ccccc3)cc2Cl)c(Cl)c1` was 7.39; that for `Cc1ccccc1Nc1ccc(Oc2ccccc2)cc1` was less than 5.00. In general, inhibition refers to the relative decrease from the control value, in per cent. Regarding `Clc1cc(Nc2ccccc2)cc(Cl)c1Oc1ccc2ccccc2c1`, the results for the inhibition in experiment [2], in experiment [3] and in experiment [4] were 15%, 78% and 42%, respectively. In experiment [1], this molecule had a pIC50 of 7.52. In the same order, the values of `CO/C=C(\C(=O)OC)c1ccccc1Oc1cc(Oc2ccccc2C#N)ncn1` [Azoxystrobin] are 92%, 99%, 23% and 6.54.

In turn, `Brc1cc(Nc2ccccc2)ccc1Oc1ccccc1` showed a pIC50 in experiment [1] of 6.49. Turning to `COc1ccc(Oc2ccc(Nc3ccccc3)cc2)cc1`, the pIC50 in experiment [1] was less than 5.00. Still for that read-out and setting: the value for `Clc1ccc(Nc2ccc(Oc3ccccc3)cc2)cc1` was 6.33; that for `Fc1ccc(Nc2ccc(Oc3ccccc3)cc2)cc1` was less than 5.00; that for `CC(C)(C)c1ccc(Nc2ccc(Oc3ccccc3)cc2)cc1` was less than 5.00. The same measure, in the same setting: the value for `Fc1cccc(Nc2ccc(Oc3ccccc3)cc2)c1` was 6.14; that for `Fc1cccc(Oc2ccc(Nc3ccccc3)cc2)c1F` was 5.84; that for `FC(F)(F)c1cccc(Nc2ccc(Oc3ccccc3)cc2)c1` was 6.44.

For `Clc1ccc(Oc2ccc(Nc3ccccc3)cc2)c(Cl)c1`, the pIC50 in experiment [1] is 6.76. Compared with the last molecule, the pIC50 is 0.32 log units higher.

In experiment [1], `Clc1cccc(Nc2ccc(Oc3ccccc3)cc2)c1` gave a pIC50 of less than 5.00. Turning to `Clc1cc(Cl)c(Oc2c(Cl)cc(Nc3ccccc3)cc2Cl)c(Cl)c1`, the inhibition is 13% in experiment [2], 89% in experiment [3] and 37% in experiment [4]. For the same molecule, in experiment [1], the pIC50 is 7.68. Molecule `FC(F)(F)c1ccc(Nc2ccc(Oc3ccccc3)cc2)cc1` gave a pIC50 in experiment [1] of 6.70. Same read-out and setting: for `c1ccc(COc2ccc(Oc3ccc(Nc4ccccc4)cc3)cc2)cc1` the value was less than 5.00; for `Fc1ccccc1Oc1ccc(Nc2ccccc2)cc1`, less than 5.00; for `Fc1ccc(Br)cc1Oc1ccc(Nc2ccccc2)cc1`, less than 5.00.

In experiment [1], `Cc1cccc(Nc2ccc(Oc3ccccc3)cc2)c1` showed a pIC50 of less than 5.00.

On to `Clc1ccc(Oc2ccc(Nc3ccccc3)cc2Cl)c(Cl)c1`, for which, in experiment [1], the pIC50 was 7.37.

In the case of `Cc1ccc(Nc2ccc(Oc3ccccc3)cc2)cc1`, the pIC50 in experiment [1] is less than 5.00. In experiment [1], `N#Cc1ccccc1Oc1ccc(Nc2ccccc2)cc1` showed a pIC50 of less than 5.00. On the same count and under the same terms, the value for `c1ccc(Nc2ccc(Oc3ccccc3)cc2)cc1` was less than 5.00.

Regarding `CC(C)CC(C)c1sccc1NC(=O)c1cn(C)nc1C(F)(F)F` (stereo not drawn) [PENTHIOPYRAD], the inhibition in experiment [2] was less than 10%; in experiment [3] it was 82%; in experiment [4], 90%. Besides, the pIC50 in experiment [1] was 5.88.
